Columns and labels:
spermatozoa = details: cited from earlier work
[1] = system: spermatozoa (human semen); assay: Sander-Cramer Spermicidal Assay; assay type: cell-based; details: highest dilution that immobilizes spermatozoa in less than 20 seconds; NP9 concentration 10 mg/mL in DMSO
Method: In this Example, the preparation of Example 1 was tested for spermicidal activity using the Sander-Cramer spermicidal assay. A series of dilutions of the test compound are prepared using 0.9% saline. 1 mL of test article is mixed with 0.2 mL of human semen in a […] by drawing the mixture into a pipet and forcibly expressing the mixture. This procedure is repeated 6 times. A hanging drop of the mixture is prepared and five fields are observed under low power magnification. The whole process from mixing to microscopic observation must be accomplished in less than 20 seconds. The end point is the highest dilution that immobilizes spermatozoa in less than 20 seconds.

Substance | spermicidal properties (in words) (spermatozoa) | Highest Spermicidal Dilution [1]
polyethylene glycol p-isooctylphenyl ether [TRITON-X] | some spermicidal properties | 
poly(ethylene glycol) p-nonylphenyl ether [NP9 Control] |  | 91

Source: patent US5700679A, “Lipid vesicles having a bilayer containing a surfactant with anti-viral and spermicidal activity” (priority 1996, dated 1997)
